Reference: the supplement of paper PMC10307832

Key:
Experiment in all cases: relative viability (nuclei count vs DMSO), 5 days (fraction); higher = more cells survive
Crizotinib + Luminespib = compound: C[C@@H](Oc1cc(-c2cnn(C3CCNCC3)c2)cnc1N)c1c(Cl)ccc(F)c1Cl [Crizotinib] + CCNC(=O)c1noc(-c2cc(C(C)C)c(O)cc2O)c1-c1ccc(CN2CCOCC2)cc1 [Luminespib] (partner 0.01 µM)
How it was run: (§1)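 One day after seeding in 1536-well plates, lung cancer cell lines were dosed by pin tool. Dosing was either single-drug or a fixed anchor-drug dose plus five library-drug doses (not always all listed) in √10 steps. After 5 days, nuclei were stained in one fix-and-stain step and counted on 4× images, and relative viability is the nuclei count of treated wells over that of vehicle wells, given as the median of duplicate plates.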

Crizotinib + Alpelisib = compound: C[C@@H](Oc1cc(-c2cnn(C3CCNCC3)c2)cnc1N)c1c(Cl)ccc(F)c1Cl [Crizotinib] + Cc1nc(NC(=O)N2CCC[C@H]2C(N)=O)sc1-c1ccnc(C(C)(C)C(F)(F)F)c1 [Alpelisib] (partner 2 µM)
How it was run: as §1

Crizotinib + Dasatinib = compound: C[C@@H](Oc1cc(-c2cnn(C3CCNCC3)c2)cnc1N)c1c(Cl)ccc(F)c1Cl [Crizotinib] + Cc1nc(Nc2ncc(C(=O)Nc3c(C)cccc3Cl)s2)cc(N2CCN(CCO)CC2)n1 [Dasatinib] (partner 0.075 µM)
How it was run: as §1

Crizotinib + Pemetrexed = compound: C[C@@H](Oc1cc(-c2cnn(C3CCNCC3)c2)cnc1N)c1c(Cl)ccc(F)c1Cl [Crizotinib] + Nc1nc2[nH]cc(CCc3ccc(C(=O)N[C@@H](CCC(=O)O)C(=O)O)cc3)c2c(=O)[nH]1 [Pemetrexed] (partner 0.2 µM)
How it was run: as §1

| Cell Line | relative viability (Crizotinib + Luminespib; first compound 0.01 µM) | relative viability (Crizotinib + Luminespib; first compound 0.03162 µM) | relative viability (Crizotinib + Luminespib; first compound 0.1 µM) | relative viability (Crizotinib + Luminespib; first compound 1 µM) | relative viability (Crizotinib + Alpelisib; first compound 0.01 µM) | relative viability (Crizotinib + Alpelisib; first compound 0.03162 µM) | relative viability (Crizotinib + Alpelisib; first compound 0.1 µM) | relative viability (Crizotinib + Alpelisib; first compound 1 µM) | relative viability (Crizotinib + Dasatinib; first compound 0.01 µM) | relative viability (Crizotinib + Dasatinib; first compound 0.03162 µM) | relative viability (Crizotinib + Dasatinib; first compound 0.1 µM) | relative viability (Crizotinib + Dasatinib; first compound 1 µM) | relative viability (Crizotinib + Pemetrexed; first compound 0.01 µM) | relative viability (Crizotinib + Pemetrexed; first compound 0.03162 µM) | relative viability (Crizotinib + Pemetrexed; first compound 0.1 µM) | relative viability (Crizotinib + Pemetrexed; first compound 0.3162 µM) | relative viability (Crizotinib + Pemetrexed; first compound 1 µM) | relative viability (Crizotinib + Luminespib; first compound 0.3162 µM) | relative viability (Crizotinib + Alpelisib; first compound 0.3162 µM) | relative viability (Crizotinib + Dasatinib; first compound 0.3162 µM) |
| --- | --- | --- | --- | --- | --- | --- | --- | --- | --- | --- | --- | --- | --- | --- | --- | --- | --- | --- | --- | --- |
| NCI-H441 | 0.273 | 0.315 | 0.399 | 0.391 | 0.795 | 0.648 | 0.859 | 0.711 | 0.531 | 0.524 | 0.497 | 0.51 | 0.25 | 0.265 | 0.292 | 0.246 | 0.237 |  |  |  |
| NCI-H460 | 0.0237 | 0.0313 | 0.0367 | 0.0386 | 0.495 | 0.404 | 0.46 | 0.442 | 0.358 | 0.521 | 0.478 | 0.479 | 0.0615 | 0.0628 | 0.0607 | 0.0596 | 0.0647 | 0.0315 | 0.504 | 0.424 |
| NCI-H520 | 0.212 | 0.258 | 0.243 | 0.231 | 0.726 | 0.92 | 0.891 | 0.962 | 0.19 | 0.192 | 0.2 | 0.155 | 0.564 | 0.626 | 0.644 | 0.789 | 0.756 | 0.258 | 1.07 | 0.271 |
| NCI-H596 | 0.86 | 1.18 | 0.942 | 1.01 | 0.396 | 0.528 | 0.509 | 0.481 | 0.634 | 0.594 | 0.677 | 0.722 | 0.462 | 0.48 | 0.509 | 0.458 | 0.509 | 1.18 | 0.564 | 0.658 |
| NCI-H647 | 0.2 | 0.14 | 0.146 | 0.153 | 1.08 | 1.16 | 1.02 | 1.01 | 0.148 | 0.172 | 0.131 | 0.17 | 0.162 | 0.188 | 0.146 | 0.177 | 0.186 | 0.152 | 0.933 | 0.191 |
| NCI-H650 | 0.726 | 0.75 |  | 0.942 | 0.955 | 1.2 | 1.06 | 1.17 | 0.472 | 0.434 | 0.512 | 0.406 | 1.09 | 0.907 | 0.956 |  | 0.984 | 0.798 | 1.06 | 0.388 |
| NCI-H661 | 0.832 | 0.92 | 0.892 | 0.908 | 0.665 | 0.684 | 0.615 | 0.725 | 0.811 |  | 0.899 | 0.98 | 0.82 | 0.939 | 0.854 | 1 | 0.904 |  | 0.699 | 0.809 |
| NCI-H838 | 0.289 | 0.275 | 0.312 | 0.254 | 0.997 |  | 1.03 | 0.964 | 0.208 | 0.303 | 0.313 | 0.261 | 0.214 | 0.237 | 0.253 | 0.265 | 0.24 | 0.326 |  | 0.248 |
| NCI-H1355 | 0.709 | 0.749 | 0.644 | 0.783 | 0.832 | 0.806 | 0.857 | 0.878 | 0.736 | 0.823 | 0.733 | 0.65 | 0.998 | 0.928 | 1.08 | 0.976 | 1.07 | 0.641 | 0.849 | 0.598 |
| NCI-H1395 | 0.632 | 0.621 | 0.692 | 0.627 | 0.996 | 0.928 | 1.09 | 1.26 | 0.388 | 0.376 | 0.409 | 0.358 | 0.91 |  | 0.888 | 0.731 | 0.88 | 0.759 | 1.11 | 0.391 |
| NCI-H1437 | 1.06 | 1.15 | 1.14 | 1.22 | 0.869 | 0.973 | 0.925 | 0.907 | 0.376 | 0.435 | 0.403 | 0.396 | 0.338 | 0.3 | 0.319 | 0.314 | 0.325 | 1.17 | 0.938 | 0.301 |
| NCI-H1563 | 0.528 | 0.505 | 0.49 | 0.534 | 0.85 | 0.838 | 1.03 | 0.782 | 0.462 | 0.443 | 0.453 | 0.461 | 0.759 | 0.833 | 0.757 | 0.735 | 0.875 | 0.566 | 0.938 | 0.444 |
| NCI-H1651 | 0.793 | 0.74 | 0.831 | 0.942 | 0.823 | 0.933 | 0.858 | 0.965 | 0.374 | 0.389 | 0.456 | 0.314 | 0.545 | 0.369 | 0.65 | 0.378 | 0.535 | 1.09 |  | 0.403 |
| NCI-H1666 | 0.864 | 1 | 1.09 | 0.999 | 0.964 |  | 1 | 0.959 | 0.808 | 0.797 | 0.741 | 0.863 | 0.826 | 0.814 | 0.87 | 0.808 | 0.82 | 0.991 | 0.984 | 0.77 |
| NCI-H1734 | 0.213 | 0.182 | 0.209 | 0.193 | 0.659 | 0.646 | 0.661 | 0.633 | 0.49 | 0.455 | 0.397 | 0.555 | 0.411 | 0.442 | 0.403 |  | 0.395 |  |  |  |
| NCI-H1755 | 0.428 | 0.482 | 0.445 | 0.266 | 0.899 | 0.844 | 0.938 | 0.959 | 0.407 | 0.46 | 0.454 | 0.413 | 0.373 | 0.44 | 0.382 | 0.445 | 0.408 | 0.554 | 0.902 | 0.273 |
| NCI-H1792 | 0.46 | 0.39 | 0.529 | 0.553 | 0.627 | 0.789 | 0.658 | 0.726 | 0.706 | 0.829 | 0.733 | 0.936 | 0.829 | 1.06 | 0.847 |  | 0.871 |  | 0.663 |  |
